“And” between values parts separate entries of the source, which are not always exact repeats. Equal entries are not always repeated.
How the values were obtained:
[1] = test system: normal rat brain homogenates (control); test: Binding and internalization in brain homogenate of normal rats; conditions: 37 °C, n = 7
Experimental: (§1) An aliquot containing 2 × 10^6 C6 cells in supplemented DMEM-F12 culture medium (450 µL) was added to a vial and incubated with 10 nmol of the radiolabeled peptide at 37 °C with gentle agitation. The studies were evaluated at 1, 4 and 24 h (n = 7 for each time point). Then, the vials were centrifuged (604× g for 5 min). The radioactivities of the pellet and supernatant were separately evaluated using an automatic Wizard 3 2480 gamma counter (Perkin Elmer; Norwalk, CT, USA). The percentage of the bound fraction was calculated by Equation (1). (1) % bound fraction=Pellet radioactivity (cpm)/Pellet radioactivity (cpm)+supernatant radioactivity (cpm)×100
(§2) In the sequence, a second radioactivity determination was performed. For that, pellets were resuspended using 0.5 mL of acid buffer (0.2 M acetic acid in 0.5 M NaCl solution; pH 2.8) and maintained at room temperature for 5 min to remove the radiolabeled molecule attached to the cell membrane surface. Then, the vials were centrifuged (1677× g for 5 min). The pellet and supernatant were separated and their radioactivities were measured using the above-mentioned automatic gamma counter. The percentage of the internalized fraction of radiopeptides was estimated based on the ratio between the activity contained in the precipitate and the supernatant and calculated by Equation (2):(2) % internalized fraction=Pellet radioactivity (cpm)/Pellet radioactivity (cpm)+supernatant radioactivity (cpm)×100
(§3) Brain homogenates were prepared at the concentration of ~10 mg of wet tissue in 1000 µL of PBS (pH 7.4). Normal brain tissue (control) and tumor-bearing brain tissue (model) were used. A 25 µL aliquot (1.2 MBq/nmol) of each radiopeptide was added to 200 µL of freshly prepared homogenates (n = 7). The homogenates containing the radiolabeled peptides were incubated at 37 °C for 1, 4 and 24 h. Binding and internalization fractions were determined as described in Section 3.11.

[2] = Partition coefficient (n-octanol/water); assay type: physicochemical; conditions: shake-flask, n-octanol/water (1:1), vortexed, 1 h at rest, centrifuged; gamma counter; mean ± SD, n = 6 (method: n = 5)
Experimental: A fraction (100 μL) of the radiopeptide was added to a water/n-octanol (1:1) mixture. The mixture was vigorously vortexed and kept at rest for 1 h. Then, it was centrifuged at 1677× g for 5 min. Equal samples from both aqueous/organic phases were collected and their radioactivities were measured in an automatic Wizard 3 2480 gamma counter (Perkin Elmer; Norwalk, CT, USA) to determine log P values (n = 5).

[3] = test system: serum proteins; test: Serum protein binding (TCA precipitation); assay type: in vitro ADME; conditions: 25 µL radiopeptide in 175 µL serum, 37 °C, 1 h; 10% TCA precipitation; gamma counter; n = 6
Experimental: Radiopeptides (25 μL) were added to 175 µL of serum (n = 6) and incubated at 37 °C for 1 h. After, 1 mL of 10% trichloroacetic acid (TCA) was added for the precipitation of proteins. The mixture was vortexed for 1 min and centrifuged at 1677× g for 10 min. This process was repeated three times. Both the supernatant’s and pellet’s radioactivity were measured in an automatic Wizard 3 2480 gamma counter (Perkin Elmer; Norwalk, CT, USA).

[4] = test system: tumor-bearing glioblastoma brain homogenate (model); test: Binding and internalization in brain homogenate of glioblastoma model rats; design: species or system rat; conditions: 37 °C, n = 7
Experimental: as §1, §2
(§4) Adult male Sprague Dawley rats (280–320 g) were maintained under controlled environmental conditions (12 h light-dark cycle; constant temperature 21 ± 2 °C), with free access to water and food. Tumorigenic glioblastoma cells were implanted in the right frontal cortex, following specific coordinates (referred to bregma): anteroposterior = 1.0 mm; lateral = 3.0 mm; depth = 5.0 mm. An aliquot of culture medium (10 µL) containing 1 × 10^6 C6 cells in suspension was injected slowly (1 µL/min) using a Hamilton syringe positioned on a stereotaxic surgery frame. In the control group, only the culture medium, without cells, was injected. An interval of 20 days after cell inoculation was allowed for tumor development.
as §3

[5] = Ex vivo biodistribution in glioblastoma allograft tumor-bearing (model) rats; design: species or system rat; conditions: for Ex vivo biodistribution, Blood / Ex vivo biodistribution, Brain / Ex vivo biodistribution, Heart / Ex vivo biodistribution, Kidneys / Ex vivo biodistribution, Liver / Ex vivo biodistribution, Lungs / Ex vivo biodistribution, Spleen / Ex vivo biodistribution, Stomach: model rats, gamma counter, mean ± SEM, n = 3
Experimental: as §4
The ex vivo biodistribution of each radiolabeled peptide (4 MBq; 0.2 mL) was evaluated at 15, 60, and 240 min after IV injection in control and tumor-bearing animals (n = 3 per group, per time point). The molar activities in this study were 0.68 and 16.2 MBq/nmol for the iodine and tricarbonyl-labeled peptides, respectively. Animals were deeply anesthetized and sacrificed at the corresponding biodistribution time point. Brain, spleen, heart, stomach, liver, lungs, kidneys, and blood were collected and weighed. Then, their radioactivities were determined using the above-mentioned automatic gamma counter. The radioactivity of each organ/tissue was evaluated as the percentage of injected dose per gram of organ/tissue (% ID/g), using the same injected dose activity as a standard.

[6] = normal rat brain homogenate, 24 h
[7] = glioblastoma model brain homogenate, 24 h

Which Bound fraction ([1]; normal rat brain homogenate (~10 mg/1000 µL PBS pH 7.4), 1 h) does the source give for [^99mTc]Tc(CO)3-GRGDHV here?
The Bound fraction was ~ 50%.

What about the Internalized fraction ([1]; normal rat brain homogenate, 1 h) of the same substance?
Its Internalized fraction is ~ 63%.

And the Bound fraction [1, 6]?
The Bound fraction was ~ 65%.

And the Internalized fraction [1, 6]?
The Internalized fraction was ~ 87%.

And the “Log P” value [2]?
Its value is −1.13 ± 0.14.

And the “Serum protein binding (SPB)” value [3]?
Its value is ~50% and 49.97 ± 0.01%.

And the Bound fraction ([4]; glioblastoma model brain homogenate (~10 mg/1000 µL PBS pH 7.4), 1 h)?
Its Bound fraction is ~ 50%.

And the Internalized fraction ([4]; glioblastoma model brain homogenate, 1 h)?
The Internalized fraction was ~ 79%.

What about the Bound fraction [4, 7] of the same substance?
The Bound fraction was ~ 78%.

What about the Internalized fraction [4, 7] of the same substance?
The Internalized fraction was ~ 98%.

And the “Ex vivo biodistribution, Blood” value ([5]; 15 min after IV injection)?
Its value is 10.28 ± 2.93 %ID/g.

And the “Ex vivo biodistribution, Blood” value ([5]; 60 min after IV injection)?
Its value is 8.91 ± 0.94 %ID/g.

What about the “Ex vivo biodistribution, Blood” value ([5]; 240 min after IV injection) of the same substance?
The value was 10.32 ± 1.51 %ID/g.

And the “Ex vivo biodistribution, Brain” value ([5]; 15 min after IV injection)?
The value was 0.71 ± 0.01 %ID/g.

What about the “Ex vivo biodistribution, Brain” value ([5]; 60 min after IV injection) of the same substance?
Its value is 0.81 ± 0.01 %ID/g.

And the “Ex vivo biodistribution, Brain” value ([5]; 240 min after IV injection)?
The value was 1.57 ± 0.11 %ID/g.

And the “Ex vivo biodistribution, Heart” value ([5]; 15 min after IV injection)?
Its value is 5.40 ± 0.48 %ID/g.

And the “Ex vivo biodistribution, Heart” value ([5]; 60 min after IV injection)?
Its value is 5.14 ± 0.73 %ID/g.

And the “Ex vivo biodistribution, Heart” value ([5]; 240 min after IV injection)?
Its value is 4.80 ± 0.11 %ID/g.

What about the “In vivo radiochemical stability” value ([5]; judged from ex vivo biodistribution (stomach uptake) in rats) of the same substance?
Its value is “better in vivo radiochemical stability”.

What about the “Ex vivo biodistribution, Kidneys” value ([5]; 15 min after IV injection) of the same substance?
The value was 58.33 ± 1.43 %ID/g.

And the “Ex vivo biodistribution, Kidneys” value ([5]; 60 min after IV injection)?
Its value is 58.99 ± 1.13 %ID/g.

And the “Ex vivo biodistribution, Kidneys” value ([5]; 240 min after IV injection)?
Its value is 40.44 ± 2.99 %ID/g.

What about the “Ex vivo biodistribution, Liver” value ([5]; 15 min after IV injection) of the same substance?
Its value is 7.04 ± 0.68 %ID/g.

And the “Ex vivo biodistribution, Liver” value ([5]; 60 min after IV injection)?
Its value is 8.29 ± 0.43 %ID/g.

And the “Ex vivo biodistribution, Liver” value ([5]; 240 min after IV injection)?
Its value is 11.62 ± 1.01 %ID/g.

What about the “Ex vivo biodistribution, Lungs” value ([5]; 15 min after IV injection) of the same substance?
The value was 10.03 ± 2.56 %ID/g.

And the “Ex vivo biodistribution, Lungs” value ([5]; 60 min after IV injection)?
The value was 7.83 ± 0.20 %ID/g.

What about the “Ex vivo biodistribution, Lungs” value ([5]; 240 min after IV injection) of the same substance?
Its value is 9.38 ± 1.89 %ID/g.

And the “Ex vivo biodistribution, Spleen” value ([5]; 15 min after IV injection)?
The value was 3.74 ± 0.33 %ID/g.

And the “Ex vivo biodistribution, Spleen” value ([5]; 60 min after IV injection)?
The value was 2.88 ± 0.32 %ID/g.

What about the “Ex vivo biodistribution, Spleen” value ([5]; 240 min after IV injection) of the same substance?
Its value is 4.12 ± 0.79 %ID/g.

What about the “Ex vivo biodistribution, Stomach” value ([5]; 15 min after IV injection) of the same substance?
The value was 4.44 ± 1.25 %ID/g.

What about the “Ex vivo biodistribution, Stomach” value ([5]; 60 min after IV injection) of the same substance?
Its value is 7.28 ± 0.88 %ID/g.

What about the “Ex vivo biodistribution, Stomach” value ([5]; 240 min after IV injection) of the same substance?
Its value is 14.60 ± 2.07 %ID/g.

Source: article PMC8876959, “Comparative Evaluation of Radiochemical and Biological Properties of ^131I- and [^99mTc]Tc(CO)3-Labeled RGD Analogues Planned to Interact with the αvβ3 Integrin Expressed in Glioblastoma” (Pharmaceuticals, 2022)
